Assays:
[1] = biological target: T1, R98H mutant of alpha-sarcoglycan (Homo sapiens, UniProt Q16586, R98H); assay: Confocal immunofluorescence, membrane localization of R98H alpha-sarcoglycan in HEK293 cells; type: cell-based; details: HEK293, 24 hours
T1 construct: expressed in transfected cells; host or cells: HEK293
T1 sequence (Q16586 24-387 R98H): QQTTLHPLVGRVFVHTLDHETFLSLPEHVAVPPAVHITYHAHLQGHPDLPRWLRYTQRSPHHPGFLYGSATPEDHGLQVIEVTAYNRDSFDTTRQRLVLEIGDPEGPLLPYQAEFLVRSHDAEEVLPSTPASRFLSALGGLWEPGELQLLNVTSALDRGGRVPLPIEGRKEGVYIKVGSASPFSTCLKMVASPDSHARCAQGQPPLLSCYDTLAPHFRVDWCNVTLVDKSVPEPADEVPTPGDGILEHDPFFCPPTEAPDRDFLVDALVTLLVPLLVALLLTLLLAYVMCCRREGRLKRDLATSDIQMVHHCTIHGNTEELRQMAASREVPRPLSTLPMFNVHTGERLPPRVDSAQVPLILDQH
Experimental: The cellular localization of either the V247M or R98H mutants, upon corrector treatments, has been verified by confocal immunofluorescence.
(§1) In the experiment reported in FIG. 8, HEK 293 cells expressing the R98H mutant have been treated for 24 hours with either Compound H (15 μM), Compound I (10 μM), Compound Q (10 μM), Compound A (2 μM) or the vehicle DMSO at 1% o concentration used as negative control. By comparison, cells expressing the wild type form of α-sarcoglycan have also been used. At the end of treatments, not permeabilized cells were incubated with a monoclonal antibody specific for an extracellular epitope of α-sarcoglycan in order to mark only the membrane resident α-sarcoglycan.
as §1, with “9,” for “8,”, “either two different concentration of” for “either”, “R (2.5 and 5” for “H (15”, “μM),” for “μM), Compound I (10 μM), Compound Q (10 μM), Compound A (2 μM)”, “1‰” for “1% o”

[2] = biological target: T1, R98H mutant of alpha-sarcoglycan; assay: Western blot rescue of R98H mutant of alpha-sarcoglycan in HEK293 cell model; type: cell-based; details: HEK293, 24 hours; for alpha-sarcoglycan protein level (western blot, densitometry), rescue of R98H mutant: A 2 μM
Experimental: HEK293 cells expressing different α-SG mutants have been treated with the Compounds A, B, C, D, E, F, H, I, Q, R, S and T according to protocols developed in CF studies [Loo and Clarke 2011; Becq et al 2011, Pedemonte et al 2005; Wang et al 2006]. Concentration and time-dependent recovery of treated mutants have been evaluated by Western blotting. The proteasome inhibitor MG132, at the concentration of 10 μM, or DMSO at 1‰ concentration, have been used as positive and negative control, respectively.
In FIG. 1 the result obtained by treating cells expressing the R98H mutant of α-SG for 24 hours with Compound C 5 μM, Compound B 10 μM, Compound E 10 μM, Compound F 10 μM, Compound A 2 μM, Compound D 10 μM are shown. At the end of treatments, cells were lysed and total proteins resolved by SDS-PAGE. Western blotting has been performed by using α-SG specific antibody and β-actin specific antibody, used to normalize loaded proteins (in FIG. 1, upper panel, a representative experiment is shown). The expression of α-SG in different samples has been determined by densitometric analysis of the western blotting experiments and indicated as percentage of the protein present in cells expressing the R98H mutant treated with DMSO (negative control).
In FIG. 4 the result obtained by treating cells expressing the R98H mutant of α-SG for 24 hours with either Compound H 15 μM, Compound I 10 μM, Compound T 15 μM, Compound A 2 μM, or DMSO at 1‰ concentration, used as negative control, are shown. Cells expressing the wild type form of α-sarcoglycan have been used for comparison. At the end of treatments, cells were lysed and total proteins resolved by SDS-PAGE. Western blotting has been performed by using α-SG specific antibody and β-actin specific antibody, used to normalize loaded proteins (in upper panel of FIG. 4, a representative experiment is shown). The expression of α-SG in different samples has been determined by densitometric analysis of the western blotting experiments and indicated as percentage of the protein present in cells expressing the wild type form of α-sarcoglycan. […] The compounds tested induced the recovery of the R98H mutant to levels that in some cases were even greater than those present in HEK cells expressing the wild type protein.
(§2) In FIG. 5 the result obtained by treating cells expressing the R98H mutant of α-SG for 24 hours with either increasing concentration of Compound R (1, 2.5, 5 μM) or DMSO at 1‰ concentration, used as negative control, are shown. Cells expressing the wild type form of α-sarcoglycan have been used for comparison. At the end of treatments, cells were lysed and total proteins resolved by SDS-PAGE. Western blotting has been performed by using α-SG specific antibody and β-actin specific antibody, used to normalize loaded proteins (in upper panel of FIG. 5, a representative experiment is shown). The expression of α-SG in different samples has been determined by densitometric analysis of western blotting experiments and indicated as percentage of the protein present in cells expressing the wild type form of α-sarcoglycan.
as §2, with “6” for “5”, “Q (5, 10 μM), increasing concentration of Compound S (10, 15” for “R (1, 2.5, 5”, “1% o” for “1‰”, “6,” for “5,”

[3] = FIG. 8, H 15 μM, I 10 μM, Q 10 μM, A 2 μM
[4] = FIG. 4, H 15 μM, I 10 μM, T 15 μM, relative to cells expressing wild type
[5] = FIG. 6, Compound Q 5, 10 μM, Compound S 10, 15 μM
[6] = FIG. 6, highest concentrations (Q 10 μM, S 15 μM)
[7] = FIG. 1, C 5 μM, B 10 μM, E 10 μM, F 10 μM, D 10 μM, relative to R98H cells treated with DMSO

SMILES	alpha-sarcoglycan protein level (western blot, densitometry), rescue of R98H mutant [2, 4]	alpha-sarcoglycan protein level (western blot, densitometry), rescue of R98H mutant [2, 7]	plasma membrane localization of R98H alpha-sarcoglycan mutant [1, 3]	further results
C=Cc1ccc(-c2csc(Nc3ccccc3)n2)cc1 [Compound S, N-phenyl-4-(4-vinylphenyl)thiazol-2-amine]	–	–	–	alpha-sarcoglycan protein level, dose dependence of R98H mutant recovery [2, 5]: dose dependent recovery; alpha-sarcoglycan protein level of R98H mutant versus wild type protein [2, 6]: reached the level of the wild type protein
COc1ccc(Cl)cc1Nc1nc(-c2sc(NC(=O)C(C)(C)C)nc2C)cs1 [Compound A, N-(2-(5-chloro-2-methoxyphenylamino)-4′-methyl-4,5′-bithiazol-2′-yl)pivalamide]	promote the rescue	promote the rescue	promote the correct membrane localization	–
O=S(=O)(c1ccc(Cl)cc1)N1CCN(c2ccnc3cc(Cl)ccc23)CC1 [Compound F, 7-chloro-4-(4-(4-chlorophenylsulfonyl)piperazin-1-yl)quinoline]	–	promote the rescue	–	–
COc1ccc(Cl)cc1Nc1nc(-c2sc(NC(=O)c3ccccc3)nc2C)cs1 [Compound E, N-[2-(5-Chloro-2-methoxy-phenylamino)-4′-methyl-[4,5′]bithiazolyl-2′-yl]-benzamide]	–	promote the rescue	–	–
COc1ccccc1Nc1nc(-c2sc(NC(=O)c3ccccc3)nc2C)cs1 [Compound R, N-(2-(2-methoxyphenylamino)-4′-methyl-4,5′-bithiazol-2′-yl)-benzamide]	–	–	–	plasma membrane localization of R98H alpha-sarcoglycan mutant ([1]; FIG. 9, Compound R 2.5 and 5 μM): promoted the correct plasma-membrane localization; alpha-sarcoglycan protein level, dose dependence of R98H mutant recovery ([2]; FIG. 5, Compound R 1, 2.5, 5 μM): dose dependent recovery; alpha-sarcoglycan protein level of R98H mutant versus wild type protein ([2]; FIG. 5, highest concentration (5 μM)): reached the level of the wild type protein
CC(=O)c1cccc(Nc2nc(-c3sc(NC(=O)c4ccccc4)nc3C)cs2)c1 [Compound Q, N-(2-(3-acetylphenylamino)-4′-methyl-4,5′-bithiazol-2′-yl)-benzamide]	–	–	promote the correct membrane localization	alpha-sarcoglycan protein level, dose dependence of R98H mutant recovery [2, 5]: dose dependent recovery; alpha-sarcoglycan protein level of R98H mutant versus wild type protein [2, 6]: reached the level of the wild type protein

Continued, in another order:

alpha-sarcoglycan protein level (western blot, densitometry), rescue of R98H mutant [2, 4]	alpha-sarcoglycan protein level (western blot, densitometry), rescue of R98H mutant [2, 7]	SMILES	plasma membrane localization of R98H alpha-sarcoglycan mutant [1, 3]	further results
promote the rescue	–	Cc1cc(Nc2ccc(Br)cc2)nc2ccccc12 [Compound I, N-(4-bromophenyl)-4-methylquinolin-2-amine]	promote the correct membrane localization	–
promote the rescue	–	Cc1cc(C)c2c(C)cc(Nc3ccccc3)nc2c1 [Compound H, 4,5,7-trimethyl-N-phenylquinolin-2-amine]	promote the correct membrane localization	–
promote the rescue	–	COc1ccc2nc(Nc3nc(=O)c(C)c(C)[nH]3)nc(C)c2c1 [Compound T, 2-(6-methoxy-4-methylquinazolin-2-ylamino)-5,6-dimethylpyrimidin-4(1H)-one]	–	–
